From patent US10308631B2, “Selective anti-cancer compounds” (NATIONAL UNIVERSITY OF SINGAPORE, priority 2015, dated 2019)

Experiments:
[1] = tested on: autophagosome marker LC3 (LC3 II/LC3 I) in transformed BJ cells; assay: Immunoblot analysis of autophagosome marker LC3 (lysosome function), derivatives of Compound 1; assay type: cell-based; conditions: Homo sapiens, band intensities LC3 II/LC3 I vs DMSO control, 24 h
Method: (§1) FIG. 4 compares the ability of Compound 1 (a131), and various derivatives thereof (referred to using their code numbers for brevity; the designated chemical compound for each code number is provided in the chemical examples section below), to inhibit autophagy and/or mitosis. BJ transformed cells were treated with 5 μM of various Compounds as shown, for 24 h. Cells were harvested and total lysates were analysed by detecting the mitotic marker phospho-histone H3 at serine 10 (pH3 (Ser10)) and the autophagosome marker LC3. Antibodies raised against β-actin were used as an internal loading control.
(§2) The ability of Compound 1 to inhibit lysosome function was examined using immunoblotting. HeLa cervical cancer cells were cultured in Dulbecco's modified Eagle's medium (DMEM) supplemented with 10% Fetal Bovine Serum (FBS, Thermo Scientific). The HeLa cells were treated with different concentrations of Compound 1 (0.625, 1.25, 2.5, 5 and 10 μM, dimethyl sulfoxide (DMSO, Kanto Kagaku)), chloroquine (CQ) (1.25, 2.5, 10, 50 and 100 μM, DMSO) or DMSO for 6 h. Then, the treated cells were harvested and lysed in 1% triton lysis buffer [25 mM Tris HCl (pH8.0), 150 mM NaCl, 1% triton-X100, 1 mM dithiothreitol (DTT), protease inhibitor mix (Complete Mini, Roche) and phosphatase inhibitor (PhosphoStop, Roche)]. The proteins in total lysates were boiled with sample buffer (60 mM Tris-HCl (pH 6.8), 25% glycerol, 2% SDS, 14.4 mM 2-mercaptoethanol, 0.1% bromophenol blue) and resolved by 14% tris-glycine sodium dodecyl sulfate polyacrylamide gel electrophoresis (SDS-PAGE) and subjected to immunoblot analysis.
(§3) Defects in lysosome function and inhibition of autophagy can be measured by accumulation of LC3-phosphatidylethanolamine conjugated non-soluble form (LC3-II), which are converted from soluble LC3-I. Thus, antibodies raised against LC3 (Cell Signaling, Cat#4108) were used to determine lysosomal function and integrity. Antibodies raised against phosphorylated histone H3 at serine 10 residue (pH3) (Cell signaling, Cat#3377) were used as the marker for mitotic dysfunction and arrest. Antibodies raised against β-actin (Millipore, Cat#MAB1501) were used as an internal loading control. The inhibitory ability of Compound 1 was also quantitatively compared to CQ.
(§4) Derivatives of Compound 1 were tested to see if they had similar dual activity, or presented only one of the activities of Compound 1. The protocol for immunoblot analysis described in Biology Example 1 was applied to the additional indicated compounds.
(§5) Activities of compounds were determined by two independent experiments. First, Compounds were classified according to the intensity of increase in each of the mitotic marker phospho-histone H3 at serine 10 (pH3 (Ser 10)) and the autophagosome marker LC3, respectively, at 1.25 μM, when compared with 1.25 μM Compound 1 (a131).
(§6) Compounds classified “++” on either “mitosis” or “inhibits lysosome” show similar increase in each of the mitotic marker phospho-histone H3 at serine 10 (pH3 (Ser10)) and the autophagosome marker LC3, respectively, at 2.5 μM, when compared with 1.25 μM Compound 1 (a131); and compounds classified “+” on either “mitosis” or “inhibits lysosome” show similar increase in each of the mitotic marker phospho-histone H3 at serine 10 (pH3 (Ser10)) and the autophagosome marker LC3, respectively, at a concentration range of 5-10 μM, when compared with 1.25 μM Compound 1 (a131).
Compounds classified “+/−” on either “mitosis” or “inhibits lysosome” show less increase in each of the mitotic marker phospho-histone H3 at serine 10 (pH3 (Ser10)) and the autophagosome marker LC3, respectively, at a concentration range of 5-10 μM, when compared with 1.25 μM Compound 1 (a131). […]

[2] = tested on: mitotic marker phospho-histone H3 at serine 10 (pH3 (Ser10)) in transformed BJ cells; assay: Immunoblot analysis of mitotic marker pH3 (Ser10), derivatives of Compound 1; assay type: cell-based; conditions: Homo sapiens, band intensities pH3(Ser10)/β-actin vs DMSO control, 24 h
Method: as §1, §2, §3, §4, §5, §6
Compounds classified “+/−” on either “mitosis” or “inhibits lysosome” show less increase in each of the mitotic marker phospho-histone H3 at serine 10 (pH3 (Ser10)) and the autophagosome marker LC3, respectively, at a concentration range of 5-10 μM, when compared with 1.25 μM Compound 1 (a131).
Next, the ability of Compound 1 and its derivatives to induce mitotic arrest in transformed BJ cells was quantified as the fold induction of band intensities [pH3(Ser10)/β-actin] in comparison with DMSO control. […]

[3] = tested on: pH3 (Ser10) and LC3 in BJ transformed cells; assay: Immunoblot classification of compounds by pH3 and LC3 (FIG. 4); assay type: cell-based, human; conditions: 5 μM, 24 h
Method: as §1, §4

| SMILES | fold induction at 5 µM [1] | fold induction at 5 µM [2] | Inhibition of lysosome function and/or mitosis (FIG. 4) [3] |
| --- | --- | --- | --- |
| COc1ccc2[nH]cc(/C(C#N)=C/c3cccc4cnccc34)c2c1 [Compound 2, (Z)-3-(isoquinolin-5-yl)-2-(5-methoxy-1H-indol-3-yl)acrylonitrile] | 3.2 | 3 | exhibit the dual properties of inhibiting both lysosome function and mitosis |
| N#C/C(=C\c1cncc2cnccc12)c1c[nH]c2ccccc12 [Compound 4, (Z)-2-(1H-indol-3-yl)-3-(2,7-naphthyridin-4-yl)acrylonitrile] | 1 | 1.4 | – |
| N#C/C(=C\c1cccc2cnccc12)c1c[nH]c2c(Br)cccc12 [Compound 5, (Z)-2-(7-bromo-1H-indol-3-yl)-3-(isoquinolin-5-yl)acrylonitrile] | 2.2 | 1.4 | – |
| COc1cccc2c(/C(C#N)=C/c3cccc4cnccc34)c[nH]c12 [Compound 6, (Z)-3-(isoquinolin-5-yl)-2-(7-methoxy-1H-indol-3-yl)acrylonitrile] | 2.7 | 3.9 | exhibit the dual properties of inhibiting both lysosome function and mitosis |
| N#C/C(=C\c1cccc2cnccc12)c1c[nH]c2ccc(Cl)cc12 [Compound 7, (Z)-2-(5-chloro-1H-indol-3-yl)-3-(isoquinolin-5-yl)acrylonitrile] | 2 | 1.4 | inhibit lysosome function only |
| N#C/C(=C\c1cccc2cnccc12)c1c[nH]c2ccc(Br)cc12 [Compound 8, (Z)-2-(5-bromo-1H-indol-3-yl)-3-(isoquinolin-5-yl)acrylonitrile] | 4 | 2.1 | exhibit the dual properties of inhibiting both lysosome function and mitosis |
| COc1ccc2c(/C(C#N)=C/c3cccc4cnccc34)c[nH]c2c1 [Compound 9, (Z)-3-(isoquinolin-5-yl)-2-(6-methoxy-1H-indol-3-yl)acrylonitrile] | 2.6 | 4.3 | exhibit the dual properties of inhibiting both lysosome function and mitosis |
| N#C/C(=C\c1cccc2cnccc12)c1c[nH]c2cc(Br)ccc12 [Compound 10, (Z)-2-(6-bromo-1H-indol-3-yl)-3-(isoquinolin-5-yl)acrylonitrile] | 0.7 | 1.6 | – |
| N#C/C(=C\c1cccc2cnccc12)c1c[nH]c2ccc(OCCC3OCCO3)cc12 [Compound 11, (Z)-2-(5-(2-(1,3-dioxolan-2-yl)ethoxy)-1H-indol-3-yl)-3-(isoquinolin-5-yl)acrylonitrile] | 0.7 | 1 | – |
| COCCOc1ccc2[nH]cc(/C(C#N)=C/c3cccc4cnccc34)c2c1 [Compound 12, (Z)-2-(5-(2-methoxyethoxy)-1H-indol-3-yl)-3-(isoquinolin-5-yl)acrylonitrile] | 3.2 | 1.6 | inhibit lysosome function only |
| N#C/C(=C\c1cccc2cnccc12)c1c[nH]c2ccc(OCCCN3CCCC3)cc12 [Compound 13, (Z)-2-(5-(3-(pyrrolidin-1-yl)propoxy)-1H-indol-3-yl)-3-(isoquinolin-5-yl)acrylonitrile] | 6 | 0.9 | inhibit lysosome function only |
| CC(=O)Nc1ccc2[nH]cc(/C(C#N)=C/c3cccc4cnccc34)c2c1 [Compound 14, N-(3-((Z)-1-cyano-2-(isoquinolin-5-yl)vinyl)-1H-indol-5-yl)acetamide] | 0.5 | 1.2 | – |
| N#C/C(=C\c1cccc2cnccc12)c1c[nH]c2ccc(NC(=O)CCCC[C@@H]3SC[C@@H]4NC(=O)N[C@@H]43)cc12 [Compound 15, N-(3-((Z)-1-cyano-2-(isoquinolin-5-yl)vinyl)-1H-indol-5-yl)-5-((3aS,4S,6aR)-2-oxohexahydro-1H-thieno[3,4-d]imidazol-4-yl)pentanamide] | 1.1 | 1.7 | – |
| CC(=O)NCCC(=O)n1cc(/C(C#N)=C/c2cccc3cnccc23)c2ccccc21 [Compound 17, (Z)—N-(3-(3-(1-cyano-2-(isoquinolin-5-yl)vinyl)-1H-indol-1-yl)-3-oxopropyl)acetamide] | 2.3 | 2.8 | – |
| N#C/C(=C\c1cccc2cnccc12)c1cn(C(=O)CCCC[C@@H]2SC[C@@H]3NC(=O)N[C@@H]32)c2ccccc12 [Compound 18, (Z)-3-(isoquinolin-5-yl)-2-(1-(5-((3aS,4S,6aR)-2-oxohexahydro-1H-thieno[3,4-d]imidazol-4-yl)pentanoyl)-1H-indol-3-yl)acrylonitrile] | 1.7 | 2.2 | inhibit mitosis only |
| CC(C)(C)OC(=O)N1CCC(C(=O)n2cc(/C(C#N)=C/c3cccc4cnccc34)c3ccccc32)CC1 [Compound 19, (Z)-tert-butyl 4-(3-(1-cyano-2-(isoquinolin-5-yl)vinyl)-1H-indole-1-carbonyl)piperidine-1-carboxylate] | 5.2 | 16.2 | exhibit the dual properties of inhibiting both lysosome function and mitosis |
| CC(C)(C)OC(=O)NCCC(=O)n1cc(/C(C#N)=C/c2cccc3cnccc23)c2ccccc21 [Compound 20, (Z)-tert-butyl (3-(3-(1-cyano-2-(isoquinolin-5-yl)vinyl)-1H-indol-1-yl)-3-oxopropyl)carbamate] | 3.9 | 4.8 | exhibit the dual properties of inhibiting both lysosome function and mitosis |
| N#C/C(=C\c1cccc2cnccc12)c1cn(C(=O)CCN)c2ccccc12 [Compound 22, (Z)-2-(1-(3-aminopropanoyl)-1H-indol-3-yl)-3-(isoquinolin-5-yl)acrylonitrile] | 4.1 | 2.1 | exhibit the dual properties of inhibiting both lysosome function and mitosis |
| C(=C\c1c[nH]c2ccccc12)/c1cccc2cnccc12 [Compound 25, 5-((E)-2-(1H-indol-3-yl)vinyl)isoquinoline] | 5.4 | 1.3 | – |
| O=C(Nc1cccc2cnccc12)c1c[nH]c2ccccc12 [Compound 29, N-(isoquinolin-5-yl)-1H-indole-3-carboxamide] | 0.4 | 1.4 | – |
